{"source": "patent US9056874B2", "about": "“Complement pathway modulators and uses thereof” (NOVARTIS AG, priority 2012, dated 2015)"}
{"target": "T1, factor B (Homo sapiens, UniProt P00751)", "test": "factor B inhibition assay of Biological Example 1", "format": "biochemical", "set-up": "CVF-Bb complex prepared from purified cobra venom factor (1 μM), recombinant human complement factor B; made in house; host or cells: drosophila cells (factor B); E. coli (factor D used to form the complex)", "settings": "IC50 (nM), assay of Biological Example 1 (Table 1)", "units": {"IC50": "nM"}}
{"smiles": "COc1cc(C)c2[nH]ccc2c1C(N)(c1nc2cc(C#N)ccc2[nH]1)C(F)(F)F", "note": "(racemic) [36-E b) (−), (−)-2-(1-amino-2,2,2-trifluoro-1-(5-methoxy-7-methyl-1H-indol-4-yl)ethyl)-1H-benzo[d]imidazole-5-carbonitrile]", "IC50": 40}
{"smiles": "COc1cc(C)c2[nH]ccc2c1C(C)(OC)c1nc2cc(C#N)ccc2[nH]1", "note": "(single isomer, unassigned; (-)) [27-B b) (−), (−)-2-(1-methoxy-1-(5-methoxy-7-methyl-1H-indol-4-yl)ethyl)-1H-benzo[d]imidazole-5-carbonitrile]", "IC50": 3}
{"smiles": "COc1cc(C)c2[nH]ccc2c1C(C)(N)c1nc2cc(C#N)ccc2[nH]1", "note": "(single isomer, unassigned; (-)) [41-B b) (−), (−)-2-(1-amino-1-(5-methoxy-7-methyl-1H-indol-4-yl)ethyl)-1H-benzo[d]imidazole-5-carbonitrile]", "IC50": 9}
{"target": "T1, factor B", "test": "assay of Biological Example 2.7", "format": "binding", "set-up": "made in house; host or cells: drosophila cells", "settings": "assay of Biological Example 2.7 (Table 2)", "units": {"IC50": "µM"}}
{"smiles": "COc1cc(C)c2[nH]ccc2c1C(N)(c1nc2cc(C#N)ccc2[nH]1)C(F)(F)F", "note": "(racemic) [36-E b) (−), (−)-2-(1-amino-2,2,2-trifluoro-1-(5-methoxy-7-methyl-1H-indol-4-yl)ethyl)-1H-benzo[d]imidazole-5-carbonitrile]", "IC50": 0.03}
{"smiles": "COc1cc(C)c2[nH]ccc2c1C(C)(OC)c1nc2cc(C#N)ccc2[nH]1", "note": "(single isomer, unassigned; (-)) [27-B b) (−), (−)-2-(1-methoxy-1-(5-methoxy-7-methyl-1H-indol-4-yl)ethyl)-1H-benzo[d]imidazole-5-carbonitrile]", "IC50": 0.004}
{"smiles": "COc1cc(C)c2[nH]ccc2c1C(C)(N)c1nc2cc(C#N)ccc2[nH]1", "note": "(single isomer, unassigned; (-)) [41-B b) (−), (−)-2-(1-amino-1-(5-methoxy-7-methyl-1H-indol-4-yl)ethyl)-1H-benzo[d]imidazole-5-carbonitrile]", "IC50": 0.01}
{"smiles": "COc1c(F)c(C)c2[nH]ccc2c1C(C)(OC)c1nc2cc(C#N)ccc2[nH]1", "note": "(stereo not shown) [Example 137-H]", "IC50": 0.031}
{"smiles": "Cc1cc(C)c2[nH]ccc2c1C(O)c1nc2ccc(C#N)cc2s1", "note": "(stereo not shown) [Example 137-O]", "IC50": 3.16}
{"smiles": "Cc1cc(C)c2[nH]ccc2c1C(O)c1cc2cc(C#N)ccc2[nH]1", "note": "(stereo not shown) [Example 137-P]", "IC50": 0.98}
{"smiles": "Cc1cc(C)c2[nH]ccc2c1C(O)c1cc2cc(C#N)ccc2o1", "note": "(stereo not shown) [Example 137-Q]", "IC50": 1.35}
{"smiles": "Cc1cc(C)c2[nH]ccc2c1C(O)c1nc2cc(C#N)ccc2s1", "note": "(stereo not shown) [Example 137-R]", "IC50": 0.79}
{"smiles": "COc1cc(C)c2[nH]ccc2c1C(C)(O)c1nc2ccc(C#N)cc2s1", "note": "(stereo not shown) [Example 137-S]", "IC50": 0.11}
{"smiles": "COc1cc(C)c2[nH]ccc2c1C(C)(O)c1cc2ccc(C#N)cc2[nH]1", "note": "(stereo not shown) [Example 137-T]", "IC50": 0.05}
{"smiles": "COc1cc(C)c2[nH]ccc2c1C(C)(O)c1cc2cc(C#N)ccc2[nH]1", "note": "(stereo not shown) [Example 137-U]", "IC50": 0.035}
{"smiles": "COc1cc(C)c2[nH]ccc2c1C(C)(O)c1cc2cc(C#N)ccc2o1", "note": "(stereo not shown) [Example 137-V]", "IC50": 0.023}
{"smiles": "COc1cc(C)c2[nH]ccc2c1C(C)(OC)c1nc2ccc(C#N)cc2s1", "note": "(stereo not shown) [Example 137-W]", "IC50": 5.22}
{"smiles": "COc1cc(C)c2[nH]ccc2c1C(C)(O)c1cc2ccc(C#N)cc2o1", "note": "(stereo not shown) [Example 137-X]", "IC50": 0.19}
{"smiles": "COc1cc(C)c2[nH]ccc2c1C(C)(OC)c1cc2ccc(C#N)cc2o1", "note": "(stereo not shown) [Example 137-Y]", "IC50": 0.82}
{"smiles": "COc1cc(C)c2[nH]ccc2c1C(C)(OC)c1cc2cc(C#N)ccc2o1", "note": "(stereo not shown) [Example 137-Z]", "IC50": 0.52}
